In US4237045A, “N-substituted cyclopeptide derivatives and preparation thereof” (American Home Products Corporation, priority 1978, dated 1980):

Experiments:
Klebsiella pneumoniae = experiment: serial broth dilution test, growth inhibition; assay type: cell-based; details: nutrient broth, incubated at 37° C. for 2 days, examined for presence of growth
Procedure: (§1) Grove and W. A. Randall in "Assay Methods of Antibiotics", Med. Encycl. Inc., New York, 1955.
(§2) For example, by employing a test like the serial broth dilution, see Grove and Randall, cited above, in which dilutions of the compounds of this invention in nutrient broth are inoculated with the microorganisms or fungi, described above, incubated at 37° C. for 2 days, respectively, and examined for the presence of growth, it may be shown that isomers L and M of cyclo-[N-[1-(1-methylethyl)-2-cyclohexylamino-2-oxo-ethyl]-alanyl-phenylalanyl-valylglycyl-leucyl-methionyl] (described in Example 2) are able to inhibit growth totally in this system of Klebsiella pneumoniae and Serratia marcescens at a concentration of 100/mcg/ml.

Serratia marcescens = experiment: serial broth dilution test, growth inhibition; assay type: cell-based; details: nutrient broth, incubated at 37° C. for 2 days, examined for presence of growth
Procedure: as §1, §2

CSCC[C@@H]1NC(=O)[C@H](CC(C)C)NC(=O)CNC(=O)[C@H](C(C)C)NC(=O)[C@H](Cc2ccccc2)NC(=O)[C@H](C)N(C(C(=O)NC2CCCCC2)C(C)C)C1=O (stereo partly drawn) [isomer L, Cyclo[N-[1-(1-methylethyl)-2-cyclohexylamino-2-oxo-ethyl]-alanyl-phenylalanyl-valyl-glycyl-leucyl-methionyl]]
concentration able to inhibit growth totally (Klebsiella pneumoniae): 100 µg/mL
concentration able to inhibit growth totally (Serratia marcescens): 100 µg/mL
